Assay results reported in ChEMBL document CHEMBL1201862, “PubChem BioAssay data set” (2004).
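Exposure lasted 48 hours, with cells grown in 96-well plates and compounds tested at five concentrations. GI50 is the concentration that inhibits growth by half.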 Active and inactive are the calls of the source. Rule as the data show it: active = GI50 up to about 1.1 µM and inactive = higher.

How the values were obtained:
Assay in all cases: inhibition of tumour cell growth, NCI panel, 48 h
[1] = tested on: A498
[2] = tested on: CCRF-CEM
[3] = tested on: DU-145
[4] = tested on: HCC 2998
[5] = tested on: HCT-15
[6] = tested on: IGROV-1
[7] = tested on: MCF7
[8] = tested on: MDA-MB-231
[9] = tested on: Malme-3M
[10] = tested on: NCI-H522
[11] = tested on: OVCAR-5
[12] = tested on: SF-295
[13] = tested on: SF-539
[14] = tested on: SK-MEL-2
[15] = tested on: SNB-75
[16] = tested on: SR
[17] = tested on: SW-620
[18] = tested on: TK-10
[19] = tested on: U-251
[20] = tested on: UACC-62

Compound	GI50 [1]	GI50 [2]	GI50 [3]	GI50 [4]	GI50 [5] [µM]	GI50 [6]	GI50 [7]	GI50 [8]	GI50 [9]	GI50 [10]	GI50 [11]	GI50 [12]	GI50 [13]	GI50 [14]	GI50 [15]	GI50 [16]	GI50 [17]	GI50 [18]	GI50 [19]	GI50 [20]
CC(C)(C)OCC1NC(=O)[C@@H]2Cc3c([nH]c4ccccc34)C(c3ccccc3)N2C1=O (stereo partly specified)	> 50 µM (inactive)	> 50 µM (inactive)	> 50 µM (inactive)	> 50 µM (inactive)	> 50	> 50 µM (inactive)	> 50 µM (inactive)	> 50 µM (inactive)	> 50 µM (inactive)	> 50 µM (inactive)	> 50 µM (inactive)	> 50 µM (inactive)	30.1 µM (inactive)	> 50 µM (inactive)	> 50 µM (inactive)	> 22.4 µM (inactive)	> 50 µM (inactive)	> 50 µM (inactive)	> 50 µM (inactive)	> 50 µM (inactive)
CCOP(=O)(OCC)/C(C#N)=C/c1cnc(-c2ccccc2)[nH]1	> 100 µM (inactive)	> 100 µM (inactive)	> 100 µM (inactive)	> 100 µM (inactive)	> 100	> 100 µM (inactive)	> 100 µM (inactive)	> 100 µM (inactive)	> 100 µM (inactive)	> 100 µM (inactive)	> 100 µM (inactive)	> 100 µM (inactive)	0.0887 µM (active)	> 100 µM (inactive)	> 100 µM (inactive)	> 100 µM (inactive)	> 100 µM (inactive)	–	> 100 µM (inactive)	> 100 µM (inactive)
OCC(O)C(O)C(O)C1SC(c2ccccc2)=NN1c1ccccc1 (stereo unspecified)	> 88.5 µM (inactive)	> 81.5 µM (inactive)	> 61 µM (inactive)	> 100 µM (inactive)	> 100	> 96.2 µM (inactive)	> 100 µM (inactive)	> 55 µM (inactive)	> 82 µM (inactive)	33 µM (inactive)	> 84.9 µM (inactive)	35.1 µM (inactive)	41.2 µM (inactive)	41.7 µM (inactive)	16 µM (inactive)	> 81.3 µM (inactive)	> 100 µM (inactive)	61.9 µM (inactive)	51.4 µM (inactive)	47 µM (inactive)
COC(=O)[C@H]1[C@@H](O)[C@@]2(O)c3c(OC)cc(OC)cc3O[C@@]2(c2ccc3c(c2)OCO3)[C@@H]1c1ccccc1	0.0144 µM (active)	0.00607 µM (active)	0.00873 µM (active)	0.00838 µM (active)	< 0.005	0.00518 µM (active)	< 0.005 µM (active)	0.0136 µM (active)	0.0168 µM (active)	< 0.0122 µM (active)	0.00953 µM (active)	0.00578 µM (active)	< 0.005 µM (active)	0.0207 µM (active)	0.0146 µM (active)	< 0.005 µM (active)	< 0.005 µM (active)	0.00684 µM (active)	0.00706 µM (active)	0.0222 µM (active)
COc1cc(C)c(C2NC(=O)c3ccccc3N2)cc1C (stereo unspecified)	0.312 µM (active)	0.352 µM (active)	0.4 µM (active)	1.33 µM (inactive)	0.217	0.472 µM (active)	0.957 µM (active)	0.968 µM (active)	0.183 µM (active)	0.254 µM (active)	0.75 µM (active)	0.243 µM (active)	0.229 µM (active)	0.297 µM (active)	0.0543 µM (active)	0.0364 µM (active)	0.303 µM (active)	2.28 µM (inactive)	0.396 µM (active)	0.201 µM (active)
C1=N\c2ccc(cc2)-c2ccc(cc2)/N=C\c2ccccc2OCc2cccc(n2)COc2ccccc2/1	65.9 µM (inactive)	> 100 µM (inactive)	> 80.5 µM (inactive)	> 100 µM (inactive)	> 100	40.6 µM (inactive)	> 100 µM (inactive)	34 µM (inactive)	> 82.8 µM (inactive)	23.8 µM (inactive)	> 63.5 µM (inactive)	18.5 µM (inactive)	26.7 µM (inactive)	27.6 µM (inactive)	2.83 µM (inactive)	> 100 µM (inactive)	> 100 µM (inactive)	26.6 µM (inactive)	7.59 µM (inactive)	39.4 µM (inactive)
Cc1ccc(NC(Nc2ccc(C)cc2C)=C(/C=C(\Cl)[N+](=O)[O-])[N+](=O)[O-])c(C)c1	18.2 µM (inactive)	0.301 µM (active)	18.5 µM (inactive)	23.3 µM (inactive)	2.92	6.04 µM (inactive)	2.83 µM (inactive)	4.94 µM (inactive)	3.09 µM (inactive)	2.37 µM (inactive)	4.36 µM (inactive)	16.6 µM (inactive)	8.85 µM (inactive)	4.23 µM (inactive)	1.11 µM (active)	1.28 µM (inactive)	1.91 µM (inactive)	4.37 µM (inactive)	11.5 µM (inactive)	3.3 µM (inactive)
O=C(O)c1ccccc1CC(Cc1ccccc1)C(=O)O (stereo unspecified)	> 100 µM (inactive)	> 100 µM (inactive)	> 100 µM (inactive)	> 100 µM (inactive)	> 100	> 100 µM (inactive)	> 10 µM (inactive)	> 100 µM (inactive)	> 100 µM (inactive)	> 100 µM (inactive)	> 100 µM (inactive)	> 100 µM (inactive)	> 100 µM (inactive)	> 100 µM (inactive)	> 100 µM (inactive)	> 100 µM (inactive)	> 100 µM (inactive)	> 100 µM (inactive)	> 100 µM (inactive)	–
O=C(/C=C/c1ccc(O)c(O)c1)OCC(OC(=O)/C=C/c1ccc(O)c(O)c1)C(=O)O (stereo unspecified)	> 100 µM (inactive)	48 µM (inactive)	> 100 µM (inactive)	> 100 µM (inactive)	47.6	80.9 µM (inactive)	> 100 µM (inactive)	> 100 µM (inactive)	–	84.7 µM (inactive)	> 100 µM (inactive)	> 100 µM (inactive)	> 100 µM (inactive)	> 100 µM (inactive)	63 µM (inactive)	21.3 µM (inactive)	50.8 µM (inactive)	> 100 µM (inactive)	63.7 µM (inactive)	> 100 µM (inactive)
COC(=O)n1c(=O)nc2c3c(ncn21)Oc1c(c(-c2ccccc2)nn1-c1ccccc1)C3c1ccc(Cl)cc1 (stereo unspecified)	2.03 µM (inactive)	1.5 µM (inactive)	1.63 µM (inactive)	1.42 µM (inactive)	1.6	–	1.69 µM (inactive)	1.67 µM (inactive)	1.04 µM (active)	1.5 µM (inactive)	1.32 µM (inactive)	1.67 µM (inactive)	1.76 µM (inactive)	1.7 µM (inactive)	2 µM (inactive)	1.82 µM (inactive)	1.69 µM (inactive)	1.79 µM (inactive)	1.71 µM (inactive)	1.95 µM (inactive)
